Data taken from PubChem BioAssay AID248 (DTP/NCI, 2004).
“And” between values parts separate entries of the source, which are not always exact repeats. Equal entries are not always repeated. Toxic doses and inconclusive results are not listed. No stated cut-off is given here; in the data, active means T/C of 150% or more; inactive means T/C below 125%.

Test system: L1210 leukemia ip in BDF1 mice, survival T/C
Assay: NCI In Vivo Anticancer Drug Screen. Data for tumor model L1210 Leukemia (intraperitoneal) in B6D2F1 (BDF1) mice
Conditions: endpoint: mean survival time, higher = longer survival
Outline: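 Ratio derived from survival: compound-dosed mice over vehicle-dosed mice, all bearing a transplantable tumor.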

[1] = dose: 100.0 mg/kg/injection, schedule: Q04DX002 (ip), vehicle: saline with Tween-80
[2] = dose: 200.0 mg/kg/injection, schedule: Q04DX002 (ip), vehicle: saline with Tween-80
[3] = dose: 400.0 mg/kg/injection, schedule: Q04DX002 (ip), vehicle: saline with Tween-80
[4] = dose: 100.0 mg/kg/injection, schedule: Q04DX003 (ip), vehicle: Klucel (hydroxypropylcellulose) (HPC)
[5] = dose: 200.0 mg/kg/injection, schedule: Q04DX003 (ip), vehicle: Klucel (hydroxypropylcellulose) (HPC)
[6] = dose: 400.0 mg/kg/injection, schedule: Q04DX003 (ip), vehicle: Klucel (hydroxypropylcellulose) (HPC)
[7] = dose: 25.0 mg/kg/injection, schedule: Q04DX003 (ip), vehicle: saline with Tween-80
[8] = dose: 100.0 mg/kg/injection, schedule: Q01DX009 (ip), vehicle: Klucel (hydroxypropylcellulose) (HPC)
[9] = dose: 200.0 mg/kg/injection, schedule: Q01DX009 (ip), vehicle: Klucel (hydroxypropylcellulose) (HPC)
[10] = dose: 400.0 mg/kg/injection, schedule: Q01DX009 (ip), vehicle: Klucel (hydroxypropylcellulose) (HPC)
[11] = dose: 50.0 mg/kg/injection, schedule: Q01DX001 (ip), vehicle: carboxymethylcellulose (CMC)
[12] = dose: 100.0 mg/kg/injection, schedule: Q01DX001 (ip), vehicle: carboxymethylcellulose (CMC)
[13] = dose: 200.0 mg/kg/injection, schedule: Q01DX001 (ip), vehicle: carboxymethylcellulose (CMC)
[14] = dose: 400.0 mg/kg/injection, schedule: Q01DX001 (ip), vehicle: carboxymethylcellulose (CMC)
[15] = dose: 100.0 mg/kg/injection, schedule: Q01DX001 (ip), vehicle: saline
[16] = dose: 200.0 mg/kg/injection, schedule: Q01DX001 (ip), vehicle: saline
[17] = dose: 400.0 mg/kg/injection, schedule: Q01DX001 (ip), vehicle: saline
[18] = dose: 100.0 mg/kg/injection, schedule: Q04DX003 (ip), vehicle: saline with Tween-80
[19] = dose: 200.0 mg/kg/injection, schedule: Q04DX003 (ip), vehicle: saline with Tween-80
[20] = dose: 400.0 mg/kg/injection, schedule: Q04DX003 (ip), vehicle: saline with Tween-80

Measured: T/C

O=C1c2cccc3cccc(c23)C1(Br)Br
inactive: dose: 75.0 mg/kg/injection, schedule: Q01DX001 (ip), vehicle: other 101 % of control | dose: 150.0 mg/kg/injection, schedule: Q01DX001 (ip), vehicle: other 104 % of control

OC1COC(c2ccccc2)OC1C(O)C1OC(c2ccccc2)OCC1O (stereo not given)
inactive: [1] 89 % of control | [2] 105 % of control | [3] 102 % of control

C[n+]1c(-c2ccc(Cl)cc2Cl)c2cc([N+](=O)[O-])ccc2c2ccccc21
inactive: dose: 12.5 mg/kg/injection, schedule: Q01DX009 (ip), vehicle: water 113 % of control | dose: 25.0 mg/kg/injection, schedule: Q01DX009 (ip), vehicle: water 113 % of control | dose: 25.0 mg/kg/injection, schedule: Q04DX003 (ip), vehicle: water 108 % of control | dose: 50.0 mg/kg/injection, schedule: Q01DX009 (ip), vehicle: water 101 % of control | dose: 100.0 mg/kg/injection, schedule: Q04DX003 (ip), vehicle: water 95 % of control

CC(C)OC(=O)Nc1ccc(Cl)cc1Cl
inactive: [4] 97 % of control | [5] 108 % of control | [6] 108 % of control

Cc1cc(=O)c2c(C)cccc2[nH]1
inactive: dose: 6.25 mg/kg/injection, schedule: Q01DX009 (ip), vehicle: saline sonified 101 % of control | dose: 6.25 mg/kg/injection, schedule: Q04DX003 (ip), vehicle: saline with Tween-80 90 % of control | dose: 12.5 mg/kg/injection, schedule: Q01DX009 (ip), vehicle: saline sonified 99 % of control | dose: 25.0 mg/kg/injection, schedule: Q01DX009 (ip), vehicle: saline sonified 99 % of control | [7] 92 % of control

O=C(O)c1cnc(C(=O)O)cn1
inactive: dose: 50.0 mg/kg/injection, schedule: Q01DX009 (ip), vehicle: Klucel (hydroxypropylcellulose) (HPC) 98 % of control | [8] 87 % of control | [9] 91 % of control

CCOc1cc(/C=N/NC(=O)COCC(=O)N/N=C/c2ccc(O)c(OCC)c2)ccc1O
inactive: [8] 88 % of control | [9] 92 % of control | [10] 97 % of control

CN(CCNC(=O)Nc1ccccc1)c1ccccc1
inactive: [8] 101 % of control | [9] 97 % of control | [10] 105 % of control

Oc1c(Cl)cc(Cl)cc1C1N(Cc2ccc(N(CCCl)CCCl)cc2Cl)CCCN1Cc1ccc(N(CCCl)CCCl)cc1Cl
inactive: [11] 109 % of control | [12] 105 % of control | [13] 103 % of control | [14] 103 % of control

C/C(=N\N=C(/C)c1c(C)c([N+](=O)[O-])c(C(C)(C)C)c([N+](=O)[O-])c1C)c1c(C)c([N+](=O)[O-])c(C(C)(C)C)c([N+](=O)[O-])c1C
inactive: dose: 100.0 mg/kg/injection, schedule: Q04DX002 (ip), vehicle: Klucel (hydroxypropylcellulose) (HPC) 97 % of control | dose: 200.0 mg/kg/injection, schedule: Q04DX002 (ip), vehicle: Klucel (hydroxypropylcellulose) (HPC) 94 % of control | dose: 400.0 mg/kg/injection, schedule: Q04DX002 (ip), vehicle: Klucel (hydroxypropylcellulose) (HPC) 97 % of control

CC1CCCCN1P(=[Se])(c1ccccc1)N1CCCCC1C (stereo not given)
inactive: dose: 25.0 mg/kg/injection, schedule: Q04DX003 (ip), vehicle: Klucel (hydroxypropylcellulose) (HPC) 97 % of control | dose: 50.0 mg/kg/injection, schedule: Q04DX003 (ip), vehicle: Klucel (hydroxypropylcellulose) (HPC) 103 % of control | [4] 100 % of control and 90 % of control

C=CCNc1ccc([N+](=O)[O-])cc1[N+](=O)[O-]
inactive: dose: 100.0 mg/kg/injection, schedule: Q01DX001 (ip), vehicle: steriod suspending solution 91 % of control | dose: 200.0 mg/kg/injection, schedule: Q01DX001 (ip), vehicle: steriod suspending solution 98 % of control

CCCCCCCCCCCCCCCCS(=O)(=O)N/N=C/c1ccc(Cl)cc1Cl
inactive: [12] 98 % of control | [13] 101 % of control | [14] 107 % of control

COC(=O)/C=C(\C)Nc1ccc([N+](=O)[O-])cc1
inactive: [15] 97 % of control | [16] 93 % of control | [17] 92 % of control

CC(=O)OC1C=C2CCCCC2(C)CC1 (stereo not given)
inactive: dose: 50.0 mg/kg/injection, schedule: Q04DX002 (ip), vehicle: saline with Tween-80 96 % of control | [1] 96 % of control | [2] 111 % of control

CCOC(=O)C(Cc1c[nH]c2ccccc12)NC(=O)/C=C/N(CCCl)CCCl (stereo not given)
inactive: dose: 10.0 mg/kg/injection, schedule: Q01DX Z (ip), vehicle: other 91 % of control | dose: 20.0 mg/kg/injection, schedule: Q01DX Z (ip), vehicle: other 92 % of control | dose: 40.0 mg/kg/injection, schedule: Q01DX Z (ip), vehicle: other 94 % of control | dose: 80.0 mg/kg/injection, schedule: Q01DX Z (ip), vehicle: other 89 % of control

O=C(c1ccc(F)cc1)c1ccc2ccccc2c1
inactive: [8] 98 % of control | dose: 100.0 mg/kg/injection, schedule: Q04DX003 (ip), vehicle: other 97 % of control | [9] 95 % of control | dose: 200.0 mg/kg/injection, schedule: Q04DX003 (ip), vehicle: other 94 % of control | [10] 92 % of control | dose: 400.0 mg/kg/injection, schedule: Q04DX003 (ip), vehicle: other 94 % of control

c1ccc(-c2nnc(-c3ccc4ccc5cccnc5c4n3)nc2-c2ccccc2)cc1
inactive: [18] 93 % of control | [19] 104 % of control | [20] 104 % of control

CCCCCCCCCCCCCCCCCC(S(=O)(=O)CC)S(=O)(=O)CC
inactive: [4] 93 % of control | [5] 93 % of control | [6] 90 % of control

CC(=O)NC1C(OCc2ccccc2)OC2COC(C)(C)OC2C1O (stereo not given)
inactive: dose: 100.0 mg/kg/injection, schedule: Q01DX001 (ip), vehicle: saline with Tween-80 107 % of control | dose: 200.0 mg/kg/injection, schedule: Q01DX001 (ip), vehicle: saline with Tween-80 93 % of control | dose: 400.0 mg/kg/injection, schedule: Q01DX001 (ip), vehicle: saline with Tween-80 110 % of control

C[n+]1cccc(C(=O)O)c1
inactive: [11] 95 % of control | [12] 95 % of control | [13] 98 % of control

CCOC(=O)C1C2/C=C/CCCCC21 (stereo not given)
inactive: [1] 105 % of control | [2] 112 % of control | [3] 98 % of control

CCCCCCCCCCCCCCCC[As](=O)(O)O
inactive: [4] 121 % of control | [5] 93 % of control | [6] 90 % of control

[N-]=Cc1c(O)cccc1[N+](=O)[O-].[N-]=Cc1cc([N+](=O)[O-])ccc1O.[Ni+2]
inactive: dose: 12.5 mg/kg/injection, schedule: Q04DX003 (ip), vehicle: saline with Tween-80 95 % of control | [7] 98 % of control | dose: 50.0 mg/kg/injection, schedule: Q04DX003 (ip), vehicle: saline with Tween-80 95 % of control | [18] 92 % of control | [19] 86 % of control

COc1cc(C(=O)N2CCOC23CCN(Cc2ccccc2)CC3)cc(OC)c1OC
inactive: dose: 100.0 mg/kg/injection, schedule: Q01DX009 (ip), vehicle: saline with Tween-80 95 % of control | [18] 102 % of control | dose: 200.0 mg/kg/injection, schedule: Q01DX009 (ip), vehicle: saline with Tween-80 90 % of control | [19] 100 % of control | [20] 100 % of control

C/C=C/COc1cc[n+]([O-])cc1
inactive: dose: 100.0 mg/kg/injection, schedule: Q04DX003 (ip), vehicle: saline 102 % of control | dose: 200.0 mg/kg/injection, schedule: Q04DX003 (ip), vehicle: saline 107 % of control

CCc1cc2c(cc1C(=O)CBr)C(C)(C)CCC2(C)C
inactive: dose: 6.25 mg/kg/injection, schedule: Q01DX009 (ip), vehicle: saline with Tween-80 103 % of control | dose: 12.5 mg/kg/injection, schedule: Q01DX009 (ip), vehicle: saline with Tween-80 109 % of control | dose: 12.5 mg/kg/injection, schedule: Q04DX003 (ip), vehicle: saline 100 % of control | dose: 25.0 mg/kg/injection, schedule: Q04DX003 (ip), vehicle: saline 102 % of control

O=C(Nc1ccccc1)c1cc(N2CCOCC2)ccn1
inactive: [15] 97 % of control | [16] 95 % of control | [17] 91 % of control
